This note sets out measurements from publication PMC10058310 (Science Advances, 2023).

The structures appear in SMILES notation.

Test [1] has as its system recombinant SARS2 encoding ∆P168 M^pro. The experiment in a line: microbe, parasite or virus in culture. It counts as cell-based. Particulars: Severe acute respiratory syndrome coronavirus 2; read-out: IC50 (95% CI).
Test [2] has as its system recombinant SARS2 encoding WT M^pro. Kind of test: microbe, parasite or virus in culture. It counts as cell-based. The conditions noted are these: A549-hACE2 cells; for IC50: Severe acute respiratory syndrome coronavirus 2, replication-competent SARS-CoV-2, M^pro WT, 72 hpi, read-out: IC50 (95% CI).
For test [3], the target named is SARS2 M^pro ∆P168 (Severe acute respiratory syndrome coronavirus 2, UniProt P0DTD1, DEL3431-3431). It counts as cell-based, SARS-CoV-2.

As for `Cn1cnc(Cn2c(=O)[nH]/c(=N\c3cc4cn(C)nc4cc3Cl)n(Cc3cc(F)c(F)cc3F)c2=O)n1` [Ensitrelvir, ensitrelvir], the IC50 in test [1] was 3.6 nM; in test [2], 4.3 nM.

For the molecule `CC(C)(C)[C@H](NC(=O)C(F)(F)F)C(=O)N1C[C@H]2[C@@H]([C@H]1C(=O)N[C@H](C#N)C[C@@H]1CCNC1=O)C2(C)C` [Nirmatrelvir, nirmatrelvir], the results for the concentration for half-maximal inhibition (IC50) in test [1] and in test [2] were 7 nM and 4.4 nM, respectively.

As for `CCC(CC)COC(=O)[C@H](C)N[P@](=O)(OC[C@H]1O[C@@](C#N)(c2ccc3c(N)ncnn23)[C@H](O)[C@@H]1O)Oc1ccccc1` [Remdesivir, remdesivir], the figures for the IC50 in test [1] and in test [2] were 1100 nM and 1200 nM, respectively. Moreover, the “Fold change in antiviral EC50” value in test [2] (M^pro WT virus (reference)) was determined as 1.0 fold.

Take `CC(C)(C)NC(=O)N[C@H](C(=O)N1C[C@H]2[C@@H]([C@H]1C(=O)NC(CC1CCC1)C(=O)C(N)=O)C2(C)C)C(C)(C)C` (some centres unmarked) [boceprevir]: the “effect on dose-response curve versus WT M^pro” value in test [3] was “no detectable effect”.

The term IC50 denotes the concentration at which inhibition is half-maximal.
